Tests used:
[1] = tested on: adhesion of CGL1 cells to MN/CA IX; test: Inhibition of cell adhesion to MN/CA IX dots by oligopeptides added to the media with the cell suspension (Figure 4B); format: cell-based, human; conditions: nonapeptides 7 + 2 aa, C-terminal alanine amide, absorbance at 630 nm of stained attached cells
[2] = target: T1, M75 epitope of immobilized GST-MN (Homo sapiens, UniProt Q16790); test: Competition ELISA, peptides binding to the epitope of immobilized GST-MN (Figure 4A); conditions: nonapeptides 7 + 2 aa, C-terminal alanine amide
T1 construct: made in house; host or cells: bacteria

mAb M75 = test: Competition ELISA with mAb M75 (antigen competing for M75, Figure 3); format: binding; conditions: for competition in ELISA with M75 at 100 g ml-1: peptide at 100 g ml-1 (so in the source), C-terminal amide; for 50% inhibition concentration in competition ELISA with M75: GST-MN 10 ng ml-1 adsorbed, mAb M75 ascites fluid final dilution 10-6, antibody + antigen mixtures adsorbed 1.5 h, peroxidase/OPD read-out; for serological activity in competition ELISA with M75 (in words): GST-MN adsorbed, mAb M75 ascites 10-6

1: AKKMKRRKA, selected from phage display library on peptide F, eluted with M75 [compound 1]
activity in cell adhesion inhibition of phage display-selected peptides (in words) [1]: less active
activity in competition ELISA of phage display-selected peptides (in words) [2]: less active

2: AITFNAQYA, selected from phage display library on peptide F, eluted with M75 [compound 2]
activity in cell adhesion inhibition of phage display-selected peptides (in words) [1]: highest activity
activity in competition ELISA of phage display-selected peptides (in words) [2]: highest activity

3: ASASAPVSA, selected from phage display library on peptide F, eluted with M75 [compound 3]
activity in cell adhesion inhibition of phage display-selected peptides (in words) [1]: marginally posi- tive only in ELISA
activity in competition ELISA of phage display-selected peptides (in words) [2]: marginally posi- tive

ADLPGEEA [6 + 2 aa permutation]
competition in ELISA with M75 at 100 g ml-1 (mAb M75): negative

ADLPGEEDA [oligopeptide 7 + 2 aa]
competition in ELISA with M75 at 100 g ml-1 (mAb M75): negative

AEDLPGEA [6 + 2 aa permutation]
competition in ELISA with M75 at 100 g ml-1 (mAb M75): negative

AEDLPGEEA [oligopeptide 7 + 2 aa]
competition in ELISA with M75 at 100 g ml-1 (mAb M75): negative

AEEDLPGA [6 + 2 aa permutation]
competition in ELISA with M75 at 100 g ml-1 (mAb M75): negative

AEEDLPGEA [oligopeptide 7 + 2 aa]
competition in ELISA with M75 at 100 g ml-1 (mAb M75): negative

AGEEDLPA [6 + 2 aa permutation]
competition in ELISA with M75 at 100 g ml-1 (mAb M75): negative

ALPGEEDA [6 + 2 aa permutation]
competition in ELISA with M75 at 100 g ml-1 (mAb M75): negative

ALPGEEDLA [oligopeptide 7 + 2 aa]
competition in ELISA with M75 at 100 g ml-1 (mAb M75): negative

APGEEDLA [6 + 2 aa permutation]
competition in ELISA with M75 at 100 g ml-1 (mAb M75): negative

D: GGSSGEDDPLGEEDLPSEEDSPC (aa 51-72 of the PG region)
50% inhibition concentration in competition ELISA with M75 (mAb M75): 1 ng/mL

EVKPKSEEEGSLKLE [Peptide G]
serological activity in competition ELISA with M75 (in words) (mAb M75): inactive

F: EDPPGEEDLPGEEDLPGEEDLPEVC (aa 75-98 of the PG region)
50% inhibition concentration in competition ELISA with M75 (mAb M75): 1 ng/mL

GEEDLPSEEDSPREEDPPGEEDLPGEC [Peptide E]
fold less active than peptides D and F in competition ELISA (mAb M75; compared with peptides D and F (50% inhibition at 1 ng ml-1)): 1000 x

N: oligopeptide 7 + 2 aa APGEEDLPA
serological activity in competition ELISA with M75 (in words) (mAb M75): minimum serologically active sequence

From PMC2363230, “Human tumour-associated cell adhesion protein MN/CA IX: identification of M75 epitope and of the region mediating cell adhesion” (British Journal of Cancer, 2000)
